These results are taken from publication PMC10611510, “Teicoplanin associated gene tcaA inactivation increases persister cell formation in Staphylococcus aureus” (Frontiers in Microbiology, 2023).

Test [1] has as its system penicillin binding protein-2 (pbp2) ectopic expression. The conditions noted are these: ref Sieradzki et al., 1998, cited from earlier work; for MIC after the increase: end value of the increase associated with pbp2 ectopic expression; for MIC before the increase: start value of the increase associated with pbp2 ectopic expression. From the text: Staphylococcus aureus has two major types of resistant strains, namely, methicillin-resistant S. aureus (MRSA) and vancomycin-resistant S. aureus (VRSA). MRSA is considered the major cause of hospital and community-acquired infections ([Aqib and Rodriguez-Morales, 2021]) and is largely treated with glycopeptides. However, the emergence of teicoplanin resistance, vancomycin-intermediate S. aureus (VISA), and VRSA has made the clinical treatment unsuccessful and increased death rates across the world ([Howden et al., 2010]). S. aureus resistant to glycopeptides are a serious threat to public hea ...

Test [2] deals with S. aureus WT. Nature of the test: microbe, parasite or virus in culture. Type of test: cell-based, Staphylococcus aureus.
Test [3] relates to ΔtcaA. Kind of test: Antibiotic susceptibility testing (inhibition zones). Type of test: cell-based, Staphylococcus aureus. Particulars: 100 fold MIC, 2 × 10^9 CFU/mL, 37°C, inhibition zones after 24–36 h; Supplementary Figure S1.
Test [4] relates to ΔtcaA. Nature of the test: Fluorescence microscopy of persister cell resuscitation (GFP). Particulars: 20-fold MIC for 48 h, washed, fresh TSB 2 h at 37°C; ΔtcaA compared to WT.
Experimental: Fluorescence microscopy was used to observe the persister cell resuscitation ability of the whole population. […] The cells were harvested, washed with ddH2O, and resuspended in TSB media. The cells were grown for 2 h at 37°C and the S. aureus WT and ΔtcaA were observed under the fluorescence microscope.
Test [5] relates to dCas9-tcaA. Nature of the test: Persister assay. The conditions noted are these: dCas9-tcaA vs WT-dCas9, 10-fold MIC, CFU counting; for Surviving fraction of cells (persisters), fold relative to control: after 12 h, triplicates; for Increase in persister cells, fold relative to control: after 48 h.
Experimental: (§2) A persistence assay was adopted from our previous protocol ([Habib et al., 2020]). The cells were grown to OD600 = 0.40 in the TSB medium. The pSD1 containing dCas9-tcaA and dCas9-tcaB were induced with ATC 100 ng/mL for 1 h, the medium was removed, and fresh TSB and antibiotic were added whereas ΔtcaA cells were challenged with antibiotic at OD600 = 0.40. After 12 h, a 200 μL sample was taken and CFU counting was performed. Each antibiotic concentration was 10 fold of MIC, and S. aureus WT and S. aureus WT-dCas9 were used as controls.
In test [6] the test system is ΔtcaA. Nature of the test: Growth curve analysis. It is filed as cell-based, Staphylococcus aureus. The conditions noted are these: OD600, 37°C. Here is the method: (§1) The overnight culture was 100 times diluted in TSB medium and a 200 μL was inoculated into a 96-well microtiter plate. The plates were incubated at 37°C with shaking at 200 rpm. At different time intervals (1–18 and 24 h), OD600 was measured using a microplate reader (Thermo Fisher, Waltham, MA, USA).

Test [7] has as its system C-ΔtcaA. Kind of test: Growth curve analysis. Type of test: cell-based, Staphylococcus aureus. The conditions noted are these: OD600, 37°C. Here is the method:
as §1

The test system of test [8] is S. aureus WT. Kind of test: Growth curve analysis. It is filed as cell-based, Staphylococcus aureus. The conditions noted are these: OD600, 37°C. Here is the method:
as §1

The test system of test [9] is MRSA MW2. Kind of test: Growth curve analysis. It is filed as cell-based, Staphylococcus aureus. Particulars: OD600, 37°C. How it is done: as §1
The subject of test [10] is ΔtcaA. Kind of test: Persister assay.
Experimental: as §2
Test [11] deals with resistant isolates. The conditions noted are these: ref Wang Y. et al., 2017; cited from earlier work. From the text: Glycopeptide resistance in MRSA is a global problem and vancomycin- and teicoplanin-resistant strains are of major clinical relevance. Several studies have reported the emergence of teicoplanin and vancomycin resistance in S. aureus ([Wang Y. et al., 2017]; [Szymanek-Majchrzak et al., 2018]; [Wu et al., 2021]). Typically, teicoplanin and vancomycin bind to D-alanine-D-alanine subunits of the murein monomer and cross resistance could develop between teicoplanin and vancomycin ([Bakthavatchalam et al., 2019]). The cell wall thickness also contributed to the development of vancomycin and teicopla ...

The subject of test [12] is dCas9-tcaB. Nature of the test: Persister assay. The conditions noted are these: dCas9-tcaB vs WT-dCas9 and WT; 10-fold MIC.
Experimental: as §2
Test [13] relates to ΔtcaA. Kind of test: MIC, two-fold broth microdilution (CLSI). It is filed as cell-based. The conditions noted are these: Staphylococcus aureus.
Test [14] deals with ΔtcaA.
Experimental: as §2
Where [15] appears, read: C-ΔtcaA complementary strain, 1 mg/L.
Setting [16] is: ΔtcaA complementary strain, 2 mg/L.

Converted amounts (≈) assume the structure as drawn. “Also recorded” adds a separate entry of the source. Like-named read-outs stand apart in the source and are kept apart here. A value given as a limit tells only on which side of the number the result lay.

As for Teicoplanin, in test [1], the “MIC after the increase” value was 8 µg/mL. For the same compound, the “MIC before the increase” value in test [1] is 2 µg/mL. The MIC in test [2] and in test [11] was 16 µg/mL throughout. Moreover, the “Susceptibility of the isolate (in words)” value in test [2] is “resistant”. The “Susceptibility of ΔtcaA (in words)” value in test [3] was “resistance; also recorded: susceptibility was decreased”. Also, the “GFP-expressing cells after antibiotic removal (resuscitation)” value in [4] is listed as “high number of cells expressing GFP in ΔtcaA cells compared to WT”. The “Surviving fraction of cells (persisters), fold relative to control” value in test [5] is listed as 17 fold; in test [10] (ΔtcaA vs WT, 10-fold MIC, after 12 h, CFU counting, triplicates), 18 fold. For the same compound, the “Increase in persister cells, fold relative to control” value is listed as 13 fold in [5] and 14 fold in test [10] (ΔtcaA vs WT, 10-fold MIC, after 48 h, CFU counting). The “Growth in TSB with antibiotic (in words)” value in test [6] (1 mg/L) is “fast and steady growth”; in [6] (2 mg/L), “slow growth”; in test [7] (setting [15]), “fast and steady growth”; in test [7] (setting [16]) it was “slow growth”; in test [8] (1 mg/L), “fast and steady growth”; in test [8] (2 mg/L), “slow growth”. The “Growth in TSB with antibiotic (in words)” value in test [9] (1 mg/L) was “slow growth rates”; in test [9] (2 mg/L) it was “did not show any growth”. Moreover, in test [10] (summary over dCas9-tcaA and ΔtcaA, discussion), the “Increase in persister cells, fold (tcaA persistence assay, summary)” value is on record as 13–14 fold. Moreover, in test [12], the “Persister cell formation relative to controls (in words)” value is “did not induce persister cell formation”.
Regarding `CC[C@H]1OC(=O)[C@H](C)[C@@H](O[C@H]2C[C@@](C)(OC)[C@@H](O)[C@H](C)O2)[C@H](C)[C@@H](O[C@@H]2O[C@H](C)C[C@H](N(C)C)[C@H]2O)[C@](C)(O)C[C@@H](C)CN(C)[C@H](C)[C@@H](O)[C@]1(C)O` [Azithromycin], in [2], the “Susceptibility of the isolate (in words)” value is recorded as “sensitive”. The MIC in test [2] (Staphylococcus aureus) and in test [13] was no more than 8 µg/mL in each case. Moreover, in test [3], the “Susceptibility of ΔtcaA (in words)” value is “did not affect”.
Turning to `CN[C@H](CC(C)C)C(=O)N[C@H]1C(=O)N[C@@H](CC(N)=O)C(=O)N[C@H]2C(=O)N[C@H]3C(=O)N[C@H](C(=O)N[C@H](C(=O)O)c4cc(O)cc(O)c4-c4cc3ccc4O)[C@H](O)c3ccc(c(Cl)c3)Oc3cc2cc(c3O[C@@H]2O[C@H](CO)[C@@H](O)[C@H](O)[C@H]2O[C@H]2C[C@](C)(N)[C@H](O)[C@H](C)O2)Oc2ccc(cc2Cl)[C@H]1O` [Vancomycin], the “MIC after the increase” value in test [1] was 2 µg/mL (≈ 1.38 µM). For the same compound, the “MIC before the increase” value in test [1] is 1 µg/mL (≈ 0.69 µM). Also, the “Susceptibility of the isolate (in words)” value in [2] is on record as “resistant”. In addition, the results for the MIC in test [2] (Staphylococcus aureus) and in [11] were 10 µg/mL (≈ 6.9 µM) and 2 µg/mL (≈ 1.38 µM), respectively. The “Increase in persister cells, fold (tcaA persistence assay, summary)” value in [14] is recorded as 10–11 fold. For the same compound, the “Increase in persister cells, fold relative to control” value in test [14] was 11 fold; in test [5], 10 fold. Further, the “Susceptibility of ΔtcaA (in words)” value in test [3] is on record as “resistance; also recorded: susceptibility was decreased”. In addition, the “GFP-expressing cells after antibiotic removal (resuscitation)” value in test [4] is “high number of cells expressing GFP in ΔtcaA cells compared to WT”. Further, the “Surviving fraction of cells (persisters), fold relative to control” value in test [5] was determined as 15 fold. The “Growth in TSB with antibiotic (in words)” value is “fast and steady growth” in test [6] (1 mg/L); “slow growth” in [6] (2 mg/L); “fast and steady growth” in test [7] (setting [15]); “slow growth” in test [7] (setting [16]); “fast and steady growth” in test [8] (1 mg/L); “slow growth” in test [8] (2 mg/L). Also, the “Growth in TSB with antibiotic (in words)” value is on record as “slow growth rates” in [9] (1 mg/L) and “did not show any growth” in [9] (2 mg/L). Besides, the “Persister cell formation relative to controls (in words)” value in test [12] is given as “did not induce persister cell formation”.
Take `COc1cccc(OC)c1C(=O)N[C@@H]1C(=O)N2[C@@H]1SC(C)(C)[C@@H]2C(=O)O` [Methicillin]: the “Susceptibility of the isolate (in words)” value in test [2] is “resistant”. In addition, the MIC is greater than 512 µg/mL in test [2] (Staphylococcus aureus) and no less than 256 µg/mL in [13].
